This experiment has as its system Sprague-Dawley rats. As to the kind of experiment: stress related eating (clamp tightened on the tail) in rats. Type of experiment: in vivo, rat. To be noted: for Stress Eating, relative amount with 0 mg/kg as 100% / Stressed Rats, average amount of food consumed per rat / Stress Eating / Control Rats, average amount of food consumed per rat: 8 hours; for Stressed Rats, average amount of food consumed per rat: clamp tightened on the tail; for Stress Eating: stressed minus control rats; for stress-related eating: stressed rats, 1-10 mg/kg; for Control Rats, average amount of food consumed per rat: untightened clamp. As to the method:
The effect of the hydrochloride salt of 6-chloro-2-(1-piperazinyl)pyrazine (MK-212, which is obtained from Merck & Co., Inc. Whitehouse Station, N.J.), on stress related eating in animals is determined through the observation of the effect of experimental compounds on stress-related eating in adult Sprague-Dawley rats. These rats are widely used as a recognized animal model useful in predicting the effect of serotoninergic drugs in humans.
In these experiments, a group of 5 adult female and 5 adult male Sprague-Dawley rats weighing between 200 and 250 grams each are used as control animals. An untightened clamp is placed on the tail of these animals. The untightened clamp provides the unstressed condition. Each animal is placed in an individual cage and allowed free access to food. The amount of food consumed is determined at 2, 4 and 8 hours after the initiation of the trial. A similar group of rats has a clamp tightened on the tail. The amount of food consumed by this stressed group of rats is shown in the 0 mg/kg column. […] similar groups of stressed rats are injected with 1, 2, 5, or 10 mg/kg body weight of MK-212 one hour before initiation of the experiment.
The relative amounts of stress eating with the amount at 0 mg/kg MK-212 as 100% is also shown in the Stress Eating row. The preferred daily dose of MK-212 is about 1 mg/kg body weight to about 10 mg/kg body weight.

Setting [1] is: 1 mg/kg injected one hour before.
[2] abbreviates: 2 mg/kg injected one hour before.
The mark [3] stands for this setting: 5 mg/kg injected one hour before.
[4] abbreviates: 10 mg/kg injected one hour before.

Consider `Cc1ccc2c(c1)-c1c(ccn1C[C@H](C)N)C2(C)C` [Ro 60-175/ORG 35030, (S)-2-(4,4,7-trimethyl-1,4-dihydro-indol (1,2-B)pyrrol-1-yl)-1-methylethylamine], for which the “stress-related eating” value is “reduces stress related eating”. For the same molecule, under “1 mg/kg”, the “Stress Eating, relative amount with 0 mg/kg as 100%” value is given as “(74%)” and the “Stress Eating” value amounted to 2.38 g. Also, under “2 mg/kg”, the “Stress Eating, relative amount with 0 mg/kg as 100%” value is listed as “(4%)” and the “Stress Eating” value is reported as 0.13 g. Where the note is “5 mg/kg”, the “Stress Eating, relative amount with 0 mg/kg as 100%” value is reported as “(3%)” and the “Stress Eating” value is reported as 0.10 g. Moreover, where the note is “10 mg/kg”, the “Stress Eating, relative amount with 0 mg/kg as 100%” value was “(1%)” and the “Stress Eating” value was 0.03 g. Besides, under setting [1], the “Stressed Rats, average amount of food consumed per rat” value (shortened to “Stressed Rats … per rat”) amounted to 3.66 g and the “Control Rats, average amount of food consumed per rat” value (shortened to “Control Rats … per rat”) was found to be 1.28 g. Further, under setting [2], the “Stressed Rats … per rat” value was found to be 1.43 g and the “Control Rats … per rat” value worked out at 1.30 g. Under setting [3], the “Stressed Rats … per rat” value was determined as 1.30 g and the “Control Rats … per rat” value is listed as 1.20 g. For the same molecule, under setting [4], the “Stressed Rats … per rat” value was 1.16 g and the “Control Rats … per rat” value is recorded as 1.13 g.

For “(S)-2-(Chloro-5-fluoro-indol-1-yl)-1-methylethylamine [Ro 60-0332/ORG 35035]”, the “stress-related eating” value was “reduces stress-related eating”. Where the note is “1 mg/kg”, the “Stress Eating, relative amount with 0 mg/kg as 100%” value is listed as “(103%)” and the “Stress Eating” value amounted to 3.58 g. Moreover, under “2 mg/kg”, the “Stress Eating, relative amount with 0 mg/kg as 100%” value is reported as “(28%)” and the “Stress Eating” value is recorded as 0.99 g. For the setting “5 mg/kg”, the “Stress Eating, relative amount with 0 mg/kg as 100%” value is reported as “(17%)” and the “Stress Eating” value is listed as 0.60 g. Also, for the setting “10 mg/kg”, the “Stress Eating, relative amount with 0 mg/kg as 100%” value is “(13%)” and the “Stress Eating” value came to 0.46 g. In addition, under setting [1], the “Stressed Rats … per rat” value was determined as 4.87 g and the “Control Rats … per rat” value amounted to 1.29 g. For the same molecule, under setting [2], the “Stressed Rats … per rat” value was determined as 2.19 g and the “Control Rats … per rat” value was found to be 1.20 g. Under setting [3], the “Stressed Rats … per rat” value amounted to 1.83 g and the “Control Rats … per rat” value was 1.21 g. Besides, under setting [4], the “Stressed Rats … per rat” value worked out at 1.74 g and the “Control Rats … per rat” value came out at 1.28 g.

As to `Clc1cncc(N2CCNCC2)n1` [MK-212, 6-chloro-2-(1-piperazinyl)pyrazine], the “stress-related eating” value is reported as “reduces stress-related eating”. Under “1 mg/kg”, the “Stress Eating, relative amount with 0 mg/kg as 100%” value is on record as “(83%)” and the “Stress Eating” value came to 2.82 g. Under “2 mg/kg”, the “Stress Eating, relative amount with 0 mg/kg as 100%” value was “(76%)” and the “Stress Eating” value is 2.58 g. Moreover, for the setting “5 mg/kg”, the “Stress Eating, relative amount with 0 mg/kg as 100%” value is “(25%)” and the “Stress Eating” value is recorded as 0.85 g. Further, for the setting “10 mg/kg”, the “Stress Eating, relative amount with 0 mg/kg as 100%” value is given as “(0%)” and the “Stress Eating” value was determined as 0.0 g. For the same molecule, under setting [1], the “Stressed Rats … per rat” value was 4.14 g and the “Control Rats … per rat” value was found to be 1.32 g. Also, under setting [2], the “Stressed Rats … per rat” value amounted to 3.78 g and the “Control Rats … per rat” value was 1.20 g. Besides, under setting [3], the “Stressed Rats … per rat” value came out at 2.01 g and the “Control Rats … per rat” value was 1.16 g. Also, under setting [4], the “Stressed Rats … per rat” value is 0.97 g and the “Control Rats … per rat” value is on record as 1.03 g.

The record behind these values is patent US6579899B1, “Composition for treatment of stress” (Massachusetts Institute of Technology, priority 1998, dated 2003).
